Three molecules from US7390820B2, “Substituted quinolinone derivatives and methods of use” (Amgen Inc., priority 2003, dated 2008) can be followed below.

pIC50: −log10 of the molar value.

This test relates to Human Umbilical Vein Endothelial cells. The experiment in a line: HUVEC proliferation assay (VEGF-stimulated). Type of test: cell-based. The following applies: 72 h, CyQuant, read-out: inhibition of VEGF-stimulated HUVEC proliferation. The procedure:
Human Umbilical Vein Endothelial cells are purchased from Clonetics, Inc., as cryopreserved cells harvested from a pool of donors. These cells, at passage 1, are thawed and expanded in EBM-2 complete medium, until passage 2 or 3. The cells are trypsinized, washed in DMEM+10% FBS+antibiotics, and spun at 1000 rpm for 10 min. Prior to centrifugation of the cells, a small amount is collected for a cell count. After centrifugation, the medium is discarded, and the cells are resuspended in the appropriate volume of DMEM+10% FBS+antibiotics to achieve a concentration of 3×10^5 cells/mL. Another cell count is performed to confirm the cell concentration. The cells are diluted to 3×10^4 cells/mL in DMEM+10% FBS+antibiotics, and 100 μL of cells are added to a 96-well plate. The cells are incubated at 37° C. for 22 h.
Prior to the completion of the incubation period, compound dilutions are prepared. Five-point, five-fold serial dilutions are prepared in DMSO, at concentrations 400-fold greater than the final concentrations desired. 2.5 μL of each compound dilution are diluted further in a total of 1 mL DMEM+10% FBS+antibiotics (400× dilution). Medium containing 0.25% DMSO is also prepared for the 0 μM compound sample. At the 22 h timepoint, the medium is removed from the cells, and 100 μL of each compound dilution is added. The cells are incubated at 37° C. for 2-3 h.
During the compound pre-incubation period, the growth factors are diluted to the appropriate concentrations. Solutions of DMEM+10% FBS+antibiotics, containing either VEGF or bFGF at the following concentrations: 50, 10, 2, 0.4, 0.08, and 0 ng/mL are prepared. […]
At the completion of the 72 h incubation period, the medium is removed, and the cells are washed twice with PBS. […] The cells are thawed and analyzed using the CyQuant fluorescent dye (Molecular Probes C-7026), following the manufacturer's recommendations. The plates are read on a Victor/Wallac 1420 workstation at 485 nm/530 nm (excitation/emission). Raw data are collected and analyzed using a 4-parameter fit equation in XLFit. IC50 values are then determined.
On to `CC(C)(C)c1ccc(-n2ncc3cccc(NCc4c[nH]c5ncccc45)c3c2=O)cc1` [Example 2, 2-(4-(1,1-Dimethylethyl)phenyl)-8-((1H-pyrrolo[2,3-b]pyridin-3-ylmethyl)amino)-1(2H)-phthalazinone], for which the pIC50 is over 6.30.
For the molecule `CC(C)(C)c1ccc(-n2ncc3cccc(NCc4ccncc4)c3c2=O)cc1` [Example 1, 2-(4-(1,1-Dimethylethyl)phenyl)-8-((4-pyridinylmethyl)amino)-1(2H)-phthalazinone], the pIC50 was over 6.30.
Under `CC(C)(C)c1ccc(N2CCc3cccc(NCc4ccncc4)c3C2=O)cc1` [Example 3, 2-(4-(1,1-Dimethylethyl)phenyl)-8-((4-pyridinylmethyl)amino)-3,4-dihydro-1(2H)-isoquinolinone] stands over 6.30.
